Experimental data published in PMC4340794, “Pharmacokinetic Study of 14-(3-Methylbenzyl)matrine and 14-(4-Methylbenzyl)matrine in Rat Plasma Using Liquid Chromatography-Tandem Mass Spectrometry” (PLoS ONE, 2015).

What was measured:
[1] = PK study using rats, oral administration, plasma levels by HPLC-MS/MS; format: in vivo, Sprague–Dawley rats; details: oral (gavage) 25 mg/kg, mean ± SD; for Tmax / AUC(0-t) / Cmax / half-life / k el / MRT last: Sprague-Dawley; for Tmax / AUC(0-t): rat, plasma, po, 25 mg/kg; for Cmax / half-life / k el / MRT last / CL / V: rat plasma; for k el: read-out: Ke (converted); for MRT last: read-out: MRT0−t (converted)
Procedure: HPLC analysis was performed using the Dionex UltiMate 3000 HPLC equipped with a binary pump, an on-line degasser, an auto-sampler and a column temperature controller. The chromatographic separations were performed using a Hypersil GOLD C18 column (100 mm × 2.1 mm, 1.9 μm particle size) protected by a C18 guard column (10 mm × 2.1 mm, 5 μm) at 40°C. The mobile phase consisted of acetonitrile:0.1% formic acid (65:35, v/v). The flow rate was set at 0.2 ml/min. Aliquots of 2 μl were injected into the HPLC system for analysis.
MS analysis was performed using a Thermo Scientific TSQ Quantum Access MAX triple-stage quadrupole mass spectrometer equipped with an electrospray ionization (ESI) source in the positive-ionization mode. The typical ion source parameters were as follows: spray voltage: 3500 V; sheath gas pressure (N2): 20 units; auxiliary gas pressure (N2): 5 units; ion transfer tube temperature: 350°C; collision gas (Ar): 1.5 mTorr; Q1/Q3 peak resolution: 0.7 Da; and scan width: 0.002 Da. The samples were analyzed via selective-reaction monitoring (SRM) of the ion pairs at m/z 343 → 148 for 3MBM, m/z 343 → 148 for 4MBM, or m/z 166 → 133 for the IS. The scan dwell time was set at 0.1 s for every channel. All data collected in the centroid mode were acquired and processed using Xcalibur 2.2 software (Thermo Fisher Scientific, Inc., USA).
Each plasma sample (100 μl) was mixed with 20 μl of the working IS solution in a 1.5-ml labeled microcentrifuge tube and was vortexed for 5 s. Then, 1000 μl of isopropanol:ethyl acetate (v/v, 25:75) was added, and each sample was vortexed for 1 min. Each tube was subsequently centrifuged at 12,000 × g for 10 min. The organic layer was transferred to another tube and evaporated to dryness at ambient temperature under a gentle stream of nitrogen. The residue was reconstituted in 100 μl of the mobile phase, and 2 μl of each sample was injected into the HPLC–MS/MS system for analysis.
Aqueous solutions of 3MBM and 4MBM were separately administered to 12 rats via gavage at 25 mg/kg (2.5 mg/ml aqueous solutions), which was equivalent to the dose administered to mice in our previous study. Serial blood samples (0.5 ml) were obtained at 0, 15, 30, 45, 60, 90, 120, 150, 240, 600, 960, and 1440 min after oral administration. All samples were placed in heparinized tubes. After centrifugation at 12,000 rpm and 4°C for 10 min, the plasma was collected and frozen at −20°C until analysis. The PK parameters were estimated according to a non-compartmental model using the TopFit 2.0 software package (Thomae, Germany). The elimination half-life (t1/2) was 0.693/ke, where ke, the elimination rate constant, was calculated by fitting the mean data at four terminal points of the plasma concentration profile to a log-linear regression equation using the least-squares method. The maximum drug plasma concentration (Cmax) and time to Cmax (Tmax) were directly determined from the observed data. The area under the plasma concentration–time curve from zero to the time of the final measurable sample (AUC0−t) was calculated using the linear-trapezoidal rule.

hepatoma = test system: hepatoma; set-up: method as in earlier work; details: cited from earlier work; for tumor inhibition rate: previous pharmacological experiment
[2] = Stability of analytes in rat plasma samples (post-preparative, freeze–thaw, long-term cold storage); format: in vitro ADME; details: for Stability III R.E. / Stability III Concentration / Stability II R.E. / Stability II Concentration: plasma; for Stability III R.E. / Stability III Concentration: 60 days at -20° C; for Stability III Concentration / Stability II Concentration / Stability I Concentration: n = 6, mean ± SD; for Stability II R.E. / Stability II Concentration: three freeze-thaw cycles; for Stability I R.E. / Stability I Concentration: processed samples, auto-sampler 24 h
Procedure: Selectivity was assessed by comparing the chromatograms of six different batches of blank rat plasma to the corresponding spiked rat plasma. Linearity was assessed via weighted (1/x^2) analysis of the six different calibration curves. Intra- and inter-day precision (the relative standard deviation, RSD) and accuracy (the relative error, RE) were determined by analyzing the low-, intermediate-, and high-concentration QC samples (n = 6) on three different days. The matrix effect was investigated by comparing the peak areas of the analytes in the post-extraction spiked blank plasma samples at low and high analyte concentrations to the corresponding standard solutions. The extraction yield was determined by comparing the mean peak areas of the six extracted samples at low, intermediate, and high QC concentrations to the mean peak areas of the spike-after-extraction samples. Stability was assessed by analyzing the replicates (n = 6) of the low, intermediate and high QC samples during the sample storage and processing procedures. Freeze–thaw stability was determined after three freeze–thaw cycles. Post-preparation stability was estimated by analyzing the QC samples after 24 h at 4°C. Six aliquots of the QC samples were stored at −20°C for 60 days to determine their long-term stability.

Row | Compound | Tmax [1] [h] | AUC(0-t) ([1]; first AUC0-t line of Table 3) [ng·h/mL] | AUC(0-t) ([1]; second AUC0-t line of Table 3) [ng·h/mL] | Cmax [1] [ng/mL] | half-life [1] [min] | k el [1] [s⁻¹] | MRT last [1] [h] | CL [1] [mL/min] | V [1] [mL] | tumor inhibition rate (hepatoma) [%] | Stability III R.E. ([2]; spike 5 ng/ml) [%] | Stability III Concentration ([2]; spike 5 ng/ml) [ng/mL] | Stability II Concentration ([2]; spike 5 ng/ml) [ng/mL] | Stability I R.E. ([2]; spike 5 ng/ml) [%] | Stability I Concentration ([2]; spike 5 ng/ml) [ng/mL] | Stability III R.E. ([2]; spike 800 ng/ml) [%] | Stability III Concentration ([2]; spike 800 ng/ml) [ng/mL] | Stability II R.E. ([2]; spike 800 ng/ml) [%] | Stability II Concentration ([2]; spike 800 ng/ml) [ng/mL] | Stability I R.E. ([2]; spike 800 ng/ml) [%] | further results
1 | Cc1cccc(CC2CCC3C4CCCN5CCCC(CN3C2=O)C45)c1 (stereo not drawn) [3MBM, 14-(3-methylbenzyl)matrine] | 1.47 | 7210 | 7480 | 1050 ± 233 | 298 ± 35 | 3.92e-05 | 7.4 | 59 ± 13 | 25119 ± 5779 | 61.83 | -3.80 | 4.81 ± 0.42 | 5.15 ± 0.35 | -1.02 | 4.94 ± 0.46 | 1.22 | 809.8 ± 30.9 | -1.82 | 785.4 ± 46.8 | -1.03 | anti-hepatoma activity in vivo (hepatoma; compared with cyclophosphamide): the same as those of the reference substances of cyclophosphamide; Stability II R.E. ([2]; spike 5 ng/ml): 2.87%; Stability I Concentration ([2]; spike 800 ng/ml): 791.7 ± 13.6 ng/mL; Stability III R.E. ([2]; spike 1600 ng/ml): 3.78%; Stability III Concentration ([2]; spike 1600 ng/ml): 1660 ± 63.9 ng/mL; Stability II R.E. ([2]; spike 1600 ng/ml): 2.46%; Stability II Concentration ([2]; spike 1600 ng/ml): 1639 ± 98.5 ng/mL; Stability I R.E. ([2]; spike 1600 ng/ml): -0.40%; Stability I Concentration ([2]; spike 1600 ng/ml): 1593 ± 39.9 ng/mL
2 | Cc1ccc(CC2CCC3C4CCCN5CCCC(CN3C2=O)C45)cc1 (stereo not drawn) [4MBM, 14-(4-methylbenzyl)matrine] | ~1.58 | 7680 | 7920 | 992 ± 275 | 295 ± 22 | 3.94e-05 | 7.67 | 59 ± 21 | 24361 ± 6921 | 51.15 | 2.60 | 5.13 ± 0.37 | 4.98 ± 0.23 | 3.20 | 5.16 ± 0.29 | -1.58 | 787.4 ± 24.1 | -1.30 | 789.6 ± 67.9 | 3.11 | Stability I Concentration ([2]; spike 800 ng/ml): 824.9 ± 37.2 ng/mL; Stability III R.E. ([2]; spike 1600 ng/ml): 2.23%; Stability III Concentration ([2]; spike 1600 ng/ml): 1636 ± 36.6 ng/mL; Stability II R.E. ([2]; spike 1600 ng/ml): -1.04%; Stability II Concentration ([2]; spike 1600 ng/ml): 1583 ± 99.2 ng/mL; Stability I R.E. ([2]; spike 1600 ng/ml): -1.42%; Stability I Concentration ([2]; spike 1600 ng/ml): 1577 ± 60.7 ng/mL
3 | O=C1CCC[C@@H]2[C@H]3CCCN4CCC[C@@H](CN12)[C@@H]34 [MT, Matrine] |  |  |  |  |  |  |  |  |  | 39.69 |  |  |  |  |  |  |  |  |  |  | 
